Results: patent US20140221468A1, “Compounds that Modulate Store Operated Calcium Channels” (The Board of Trustees of the Leland Stanford Junior …, priority 2010, published 2014)

Key:
SOC [1] = assay: NFAT coupled luciferase assay (NFAT-luc) for functional inhibition of SOC; format: cell-based; details: Jurkat T cells pretreated 30 minutes, activated by thapsigargin (TG) and PMA; read-out: EC50, NFAT-luc assay dose response
Protocol: To evaluate the ability of these compounds to inhibit SOC, a NFAT coupled luciferase assay was utilized as a functional secondary screen (FIG. 2A). This assay allows the monitoring of the IL2 promoter dependent production of luciferase that is directly activated by SOC through dephosphorylation of NFAT in T lymphocytes. This assay requires treatment of PMA, a PKC agonist, in parallel with SOC activation. Jurkat T cells were pretreated with each of the 51 compounds for 30 minutes and then activated by treatment of thapsigargin (TG) and PMA. TG depletes the ER stores by inhibiting the SERCA pumps that are responsible for refilling these stores with calcium. This process in turn activates SOC currents.
Fifty one compounds identified in the binding assay were tested by NFAT-luc assay to evaluated their SOC inhibitory properties (top). Renilla-luc was also monitored as an internal control of viability of the cells (bottom).
To further examine the hits produced from the secondary luciferase screen, four compounds AnCoA4, AnCoA5, AnCoG4, and AnCoF6 were selected (FIGS. 2B, C, D). The Dose response curve calculated from FIG. 2B is shown in FIG. 2C with a calculated EC50 equal to 0.9 μM.

SOC [2] = assay: Fura2-AM calcium imaging in HEK293 cells; format: cell-based; details: for effect on intracellular calcium levels, post SOC activation treatment: applied after ER store depletion, at minute 510 of imaging
Protocol: Calcium imaging was utilized for further characterization of the compounds and analogs. Using Fura2-AM, a known ratiometric calcium indicator, SOC dependent intracellular calcium rise and lack thereof was measured after treatment of our compounds (FIG. 3A-B). […] 1 minute before treatment of Thapsigargin.
This observation was in line with the previous luciferase assays and confirmed the ability of these compounds to inhibit SOC.
LaCl, a general blocker of divalent channels, was also used as a comparison for the post treatment experiment. […] HEK293 cells were treated with DMSO (black), LaCl at 1 uM (red), AnCoA4 at 50 uM (orange), and BiochaninA at 50 uM (green) at minute 510 of the calcium imaging. The intracellular calcium levels quickly drop after LaCl treatment whereas the compound treatment had no effect on the calcium levels.imaging.

jurkat T lymphocytes = assay: qRT PCR of T and B lymphocyte activating genes in jurkat T lymphocytes; format: cell-based, human
Protocol: The ability of AnCoA4 to inhibit activation of jurkat T lymphocytes was investigated (FIG. 4A). As IL2 gene production was previously investigated indirectly using a luciferase assay, the production of 83 more genes was monitored using real time quantitative PCR (qRT PCR). […] Jurkat T cells were treated with DMSO and AnCoA4 30 minutes before activation with PHA. Total RNA was extracted after 4 hours. […] Cells were pretreated with AnCoA4 30 minutes before activation with PHA or thapsigargin plus PMA for various time length of activation.
The ability of the AnCoA4 alone for independent up regulation of IL2 gene was also tested and no effects were observed.

[3] = 50 uM pretreatment for 30 minutes, then PHA activation, qRT PCR

Row | SMILES | EC50 (SOC [1]) | SOC dependent intracellular calcium influx, pretreatment (SOC [2]; 50 uM, 1 minute before thapsigargin) | effect on intracellular calcium levels, post SOC activation treatment (SOC [2]; 50 uM) | CCL4 down regulation (jurkat T lymphocytes; [3]) | IL2 down regulation (jurkat T lymphocytes; [3]) | mRNA levels for most genes in comparison with the control sample (jurkat T lymphocytes; 84 genes, 50 uM pretreatment for 30 minutes, then PHA activation) | independent up regulation of IL2 gene by compound alone (jurkat T lymphocytes; compound alone, without activation) | effect on intracellular calcium levels, post SOC activation treatment (SOC [2]; 1 uM)
1 | COc1cc2c(cc1-c1coc3c4c(ccc3c1=O)OC(C)(C)C=C4)OCO2 [AnCoA4] | 900 nM | significantly reduced | no effect | ~180 folds | about 6 folds | significantly lower | no effects | –
2 | COc1ccc(-c2coc3cc(O)cc(O)c3c2=O)cc1 [BiochaninA] | – | – | no effect | – | – | – | – | –
3 | [Cl][La]([Cl])[Cl] [LaCl, reference compound] | – | – | – | – | – | – | – | quickly drop
